Reference: patent US9493464B2, “Wee1 degradation inhibitors” (The Scripps Research Institute, priority 2012, dated 2016)

Legend:
CK1δ [1] = biological target: T1, CK1δ (Homo sapiens, UniProt P48730); experiment: In-house CK1d inhibition assay (TR-FRET); assay type: biochemical; conditions: footnote b: in-house CK1d assay
Procedure: (§1) In vitro kinase assay to detect CK1 or FLT3 activity: CK1 and FLT3 assays as well as complete kinase profile of 296 kinases was performed by Reaction Biology Corporation. For FLT3 20 μM final Abltide was used, sequence: [[…]]. For CK1 (all isoforms) 20 μM CK1 tide was used, sequence: [KRRRAL[pS]VASLPGL] in a standard kinase assay with ^32P-ATP and purified kinase. Incorporation of ^32P-ATP into the peptide was measured after a filter-binding assay. In-house CK1d inhibition assays were performed using a standard homogenous time-resolved fluorescence resonance energy transfer (TR-FRET) format in 50 mM Hepes, pH 7.0, 2.5 mM MgCl2, 0.1 mg/ml bovine serum albumin, 1 mM DL-dithiothreitol, 0.01% Triton X-100 (all from Sigma-Aldrich). Briefly, the CK1δ substrate (DEKTDDE, containing CK1 consensus sequence; 4 μL of a 500 nM stock solution) is labeled with a small Ulight acceptor dye (PerkinElmer). In the presence of 10 μL of 10 nM CK1δ, the Ulight peptide is phosphorylated at a single amino acid that is specifically recognized by a europium chelate (Eu)-labeled phosphospecific antibody. Assays were performed in the presence of 2 μL of compound at different (measured) concentrations, and reactions were stopped by adding 10 μL of 4 nM Eu-anti-p-Topo-IIa (PerkinElmer) in Lance Detection Buffer (Perkin Elmer). Upon excitation of the Eu-labeled antibody, energy is transferred to the acceptor dye resulting in the emission of detected light at 665 nm.

K328M-Wee1-luciferase = experiment: Wee1-luciferase assay (stabilization of K328M-Wee1-luciferase); assay type: cell-based; conditions: for % Inhibition, Wee1 Degradation: at 250 nM, reported relative to SR-1277 = 100%; for EC50: read-out: Wee1 Stabilization
Description: Steady-state level of K328M-Wee1-Luciferase (K328M-Wee1-Luc) was divided by Luciferase level (Luc) and plotted.
Similar assays have previously been described; PubChem AID 1807.

CK1δ [2] = biological target: T1, CK1δ; experiment: In vitro kinase assay, CK1d, 32P-ATP filter binding (Reaction Biology Corporation); assay type: biochemical; conditions: footnote a: determined by Reaction Biology Corporation; read-out: IC50 CK1d
Procedure: Compounds were tested in 10-dose IC50 mode with 3-fold serial dilution starting at 50 μM. […] Reactions were carried out at 10 μM ATP. Average and standard deviations of reactions carried out in triplicate are shown.
as §1

T1 sequence (P48730 whole entry, canonical isoform): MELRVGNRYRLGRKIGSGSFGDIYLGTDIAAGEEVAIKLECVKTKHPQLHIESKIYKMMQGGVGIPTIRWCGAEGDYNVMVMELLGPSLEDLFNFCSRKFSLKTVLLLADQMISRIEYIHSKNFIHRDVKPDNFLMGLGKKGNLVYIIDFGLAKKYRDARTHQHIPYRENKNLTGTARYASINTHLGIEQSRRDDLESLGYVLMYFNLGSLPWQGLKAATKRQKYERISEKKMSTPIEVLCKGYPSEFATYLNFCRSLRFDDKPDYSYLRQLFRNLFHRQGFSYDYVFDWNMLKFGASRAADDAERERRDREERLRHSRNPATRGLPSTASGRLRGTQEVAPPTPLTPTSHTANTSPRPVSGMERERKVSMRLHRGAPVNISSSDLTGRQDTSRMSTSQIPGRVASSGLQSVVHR

Structure (SMILES)	IC50 (CK1δ [1]) [nM]	% Inhibition, Wee1 Degradation (K328M-Wee1-luciferase) [%]	also measured
OC1CN(c2nc(NCc3nc4ccccc4[nH]3)c3ncn(-c4cccc(F)c4)c3n2)C1 [SR-3087]	482	–	–
Clc1ccc2[nH]c(CNc3nc(N4CCCNCC4)nc4c3ncn4-c3ccoc3)nc2c1 [SR-2917]	120	–	–
NCCN1CCN(c2nc(NCc3nc4ccccc4[nH]3)c3ncn(-c4ccsc4)c3n2)CC1 [SR-1299]	–	8.6	–
CC(C)N1CCN(c2nc(NCc3nc4ccccc4[nH]3)c3ncn(-c4cccc(F)c4)c3n2)CC1 [SR-2949]	2410	–	–
C=CCN(CC=C)c1nc(NCc2nc3ccccc3[nH]2)c2ncn(-c3ccsc3)c2n1 [SR-1295]	–	8.2	–
Fc1cccc(-n2cnc3c(NCc4ccc5c(c4)OCO5)nc(N4CCOCC4)nc32)c1 [SR-3061]	199	–	–
c1ccc(-c2cccc(-n3cnc4c(NCc5nc6ccccc6[nH]5)nc(N5CCOCC5)nc43)c2)cc1 [SR-3048]	> 10000	–	–
Fc1cccc(-n2cnc3c(NCc4cccc5ccccc45)nc(N4CCOCC4)nc32)c1 [SR-3004]	666	–	–
Nc1cccc2[nH]c(CNc3nc(N4CCOCC4)nc4c3ncn4-c3ccsc3)nc12 [SR-1287]	–	15.6	–
Fc1cccc(-n2cnc3c(NCc4nc5ccccc5[nH]4)nc(N4CCC(F)(F)CC4)nc32)c1 [SR-3060]	> 10000	–	–
CN1CCN(c2nc(NCc3nc4cc(Cl)ccc4[nH]3)c3ncn(-c4cccc(F)c4)c3n2)CC1 [SR-2870]	828	–	–
c1ccc(N2CCN(c3nc(NCc4nc5ccccc5[nH]4)c4ncn(-c5ccsc5)c4n3)CC2)nc1 [SR-648378]	–	4.0	EC50 (K328M-Wee1-luciferase): 4300 nM
CC(C)n1cnc2c(NCc3nc4ccccc4[nH]3)nc(Nc3cnccn3)nc21 [SR-660754]	–	5.3	EC50 (K328M-Wee1-luciferase): 4000 nM
NC1CCN(c2nc(NCc3nc4cc(Cl)ccc4[nH]3)c3ncn(-c4cccc(F)c4)c3n2)C1 (stereo not drawn) [SR-3098]	150	–	–
COC(=O)c1cccc2[nH]c(CNc3nc(N4CCNCC4)nc4c3ncn4-c3ccoc3)nc12 [SR-2927]	33	–	–
NC1CN(c2nc(NCc3nc4ccccc4[nH]3)c3ncn(-c4cccc(F)c4)c3n2)C1 [SR-3084]	382	–	–
NC1CCN(c2nc(NCc3nc4cc(Cl)ccc4[nH]3)c3ncn(-c4ccsc4)c3n2)CC1 [SR-2875]	119	–	–
c1ccc2[nH]c(CNc3nc(N4CCNCC4)nc4c3ncn4-c3ccoc3)nc2c1 [SR-2914]	116	–	–
CN1CCN(c2nc(NCc3nc4cc(F)ccc4[nH]3)c3ncn(-c4cccc(F)c4)c3n2)CC1 [SR-2871]	190	–	–
Fc1cccc(-n2cnc3c(NCc4nc5c(Cl)cccc5[nH]4)nc(N4CCOCC4)nc32)c1 [SR-2950]	153	–	–

Structure (SMILES)	IC50 (CK1δ [1]) [nM]	% Inhibition, Wee1 Degradation (K328M-Wee1-luciferase) [%]	also measured
C[C@@H]1CN(c2nc(NCc3nc4cc(Cl)ccc4[nH]3)c3ncn(-c4cccc(F)c4)c3n2)C[C@H](C)O1 [SR-3096]	830	–	–
c1cnc2ccc3[nH]c(CNc4nc(N5CCOCC5)nc5c4ncn5-c4ccsc4)nc3c2c1 [SR-1281]	–	22.0	–
CCOC(=O)c1ccc2[nH]c(CNc3nc(N4CCNCC4)nc4c3ncn4-c3ccoc3)nc2c1 [SR-2916]	687	–	–
c1ccc(-n2cnc3c(NCc4nc5ccccc5[nH]4)nc(N4CCOCC4)nc32)cc1 [SR-649967]	–	4.0	EC50 (K328M-Wee1-luciferase): 4300 nM
Nc1ccc2[nH]c(CNc3nc(N4CCOCC4)nc4c3ncn4-c3ccsc3)nc2c1 [SR-1286]	–	8.3	–
OCCN1CCN(c2nc(NCc3nc4ccccc4[nH]3)c3ncn(-c4ccsc4)c3n2)CC1 [SR-1296]	–	10.0	–
CC(C)n1cnc2c(NCc3nc4c(C(=O)O)cccc4[nH]3)nc(N3CCOCC3)nc21 [SR-1402]	–	0.0	–
c1ccc2[nH]c(CNc3nc(N4CCSCC4)nc4c3ncn4-c3ccsc3)nc2c1 [SR-1291]	–	11.4	–
c1ccc2[nH]c(CNc3nc(Nc4cnccn4)nc4c3ncn4-c3ccsc3)nc2c1 [SR-660983]	–	2.9	EC50 (K328M-Wee1-luciferase): 3800 nM
O=[N+]([O-])c1cccc2[nH]c(CNc3nc(N4CCOCC4)nc4c3ncn4-c3cccc(F)c3)nc12 [SR-2364]	46	–	–
Fc1cccc(-n2cnc3c(NCc4nc5ccccc5[nH]4)nc(N4CCCC4)nc32)c1 [SR-3006]	884	–	–
c1ccc2[nH]c(CNc3nc(NCCN4CCOCC4)nc4c3ncn4-c3ccsc3)nc2c1 [SR-1298]	–	8.1	–
C[C@@H](Nc1nc(NCc2nc3ccccc3[nH]2)c2ncn(-c3ccsc3)c2n1)c1ccccc1 [SR-1289]	–	9.2	–
Fc1cccc(-n2cnc3c(NCc4nc5ccccc5[nH]4)nc(N4CCCCC4)nc32)c1 [SR-3005]	> 10000	–	–
Fc1cccc(-n2cnc3c(NCc4nc5c(F)cccc5[nH]4)nc(N4CCOCC4)nc32)c1 [SR-3086]	37	–	–
CN1CCN(c2nc(NCc3nc4cc(C(F)(F)F)ccc4[nH]3)c3ncn(-c4ccoc4)c3n2)CC1 [SR-2867]	199	–	–
CC(C)n1cnc2c(NCc3nc4ccccc4[nH]3)nc(Nc3cccnc3)nc21 [SR-655534]	–	3.4	EC50 (K328M-Wee1-luciferase): 3800 nM
CC1CN(c2nc(NCc3nc4ccccc4[nH]3)c3ncn(-c4ccsc4)c3n2)CCN1 (stereo not drawn) [SR-2915]	199	–	–
CN(C)C(=O)c1cccc2[nH]c(CNc3nc(N4CCNCC4)nc4c3ncn4-c3ccoc3)nc12 [SR-2928]	107	–	–
CCN(CC)CCNC(=O)c1c(C)[nH]c(/C=C2\C(=O)Nc3ccc(F)cc32)c1C [Sutent, reference compound]	–	–	stabilization of K328M-Wee1-luciferase (K328M-Wee1-luciferase; HeLa cells, result in words): does not stabilize K328M-Wee1-luciferase

Structure (SMILES)	IC50 (CK1δ [1]) [nM]	% Inhibition, Wee1 Degradation (K328M-Wee1-luciferase) [%]	also measured
Fc1cccc(-n2cnc3c(NCc4nc5cc(F)ccc5[nH]4)nc(N4CCOCC4)nc32)c1 [SR-3162]	88	–	–
CC(C)n1cnc2c(NCc3nc4ccccc4[nH]3)nc(N3CCOCC3)nc21 [SR-648126]	–	4.1	EC50 (K328M-Wee1-luciferase): 5300 nM
O=[N+]([O-])c1cccc2[nH]c(CNc3nc(N4CCOCC4)nc4c3ncn4-c3cc(F)cc(F)c3)nc12 [SR-2368]	75	–	–
c1ccc2[nH]c(CNc3nc(N4CCCC4)nc4c3ncn4-c3ccsc3)nc2c1 [SR-1293]	–	9.9	–
O=[N+]([O-])c1cccc2[nH]c(CNc3nc(N4CCOCC4)nc4c3ncn4-c3ccc(F)cc3)nc12 [SR-2362]	–	–	IC50 (CK1δ [2]): 1130 nM
Clc1ccc2[nH]c(CNc3nc(N4CCNCC4)nc4c3ncn4-c3ccsc3)nc2c1 [SR-2876]	51	–	–
CCOC(=O)c1cccc2[nH]c(CNc3nc(N4CCOCC4)nc4c3ncn4C(C)C)nc12 [SR-1283]	–	17.0	–
CC(C)n1cnc2c(NCc3nc4ccccc4[nH]3)nc(Nc3ccncn3)nc21 [SR-656428]	–	4.0	EC50 (K328M-Wee1-luciferase): 4400 nM
c1ccc2c(c1)CCN2c1nc(NCc2nc3ccccc3[nH]2)c2ncn(-c3ccsc3)c2n1 [SR-1297]	–	7.9	–
CN1CCN(c2nc(NCc3nc4ccccc4[nH]3)c3ncn(-c4cccc(F)c4)c3n2)CC1 [SR-2932]	306	–	–
O=[N+]([O-])c1cccc2[nH]c(CNc3nc(N4CCOCC4)nc4c3ncn4-c3ccccc3F)nc12 [SR-2366]	114	–	–
Fc1cccc(-n2cnc3c(NCc4nc5cc(F)ccc5[nH]4)nc(N4CCNCC4)nc32)c1 [SR-3163]	62	–	–
O=C(NC1CC1)c1ccc(-c2nc(NCc3nc4ccccc4[nH]3)c3ncn(-c4ccsc4)c3n2)cc1 [SR-658807]	–	3.6	EC50 (K328M-Wee1-luciferase): 4100 nM
Fc1cccc(-n2cnc3c(NCc4nc5ccccc5[nH]4)nc(N4CCOCC4)nc32)c1 [SR-2931]	101	–	–
O=C(O)c1cccc2[nH]c(CNc3nc(N4CCOCC4)nc4c3ncn4-c3ccsc3)nc12 [SR-1401]	–	0.0	–
c1ccc2[nH]c(CNc3nc(N4CCCCC4)nc4c3ncn4-c3ccsc3)nc2c1 [SR-1288]	–	10.5	–
CCN1CCN(c2nc(NCc3nc4ccccc4[nH]3)c3ncn(-c4cccc(F)c4)c3n2)CC1 [SR-2948]	589	–	–
NC1CN(c2nc(NCc3nc4cc(Cl)ccc4[nH]3)c3ncn(-c4cccc(F)c4)c3n2)C1 [SR-3095]	360	–	–
